# Data as given in PubChem BioAssay AID2060326 (Molecular Pharmacology Branch, DTP, NCI, 2025).
# Values joined by “and” are separate entries in the source; they are usually repeats but may differ in a detail not shown here. Equal entries are not always repeated.
# Tested on: MDA-MB-468 multi-cell spheroids, viability
# Experiment: Anticancer human tumor MDA-MB-468 cell line growth inhibition [IpAb];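 also: spheroids exposed to agents for seven days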;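 as to viability, T/C: 100% = DMSO vehicle control viability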
# Conditions: for viability, T/C: stronger effect = lower value
# Text: Combinatorial screen of targeted agents with ipatasertib and abemaciclib in multi-cell type tumor spheroids
# A high-throughput screen of multi-cell type tumor spheroids was designed to identify active combinations of targeted small molecules and ipatasertib or abemaciclib. Complex spheroids include a stromal component modeled by human endothelial cells (HUVEC) and fibroblasts modeled by human mesenchymal stem cells (MSCs). The concentration ranges selected for each drug and investigational agent were based upon clinically achievable concentrations if the clinical Cmax of the agent was known.
# Compounds. The drugs and investigational agents: ipatasertib (NSC767898), abemaciclib(NSC768073), selumetinib (NSC741078), trametinib (758246), adavosertib (NSC754352), everolimus (NSC733504), sapanisertib (NSC764658), vemurafenib (NSC761431), venetoclax (NSC766270), copanlisib (NSC809693), apelisib (NSC765974), palbociblib (NSC758247), vemurafenib (NSC761431), dabrafenib (NSC764134), ravoxertinib (NSC781343), BMS-387032 (NSC767048), sotorasib (NSC818433), talazoparib (NSC767125) and afursertib (NSC778305), were obtained from the National Cancer Institute (NCI) Developmental Therapeutics Program Chemical Repository. The FDA-approved anticancer drug set is available from the NCI Developmental Therapeutics Program. […] The stock solutions were prepared in dimethyl sulfoxide (DMSO, Sigma-Aldrich, St. Louis, MO, cat. D2650) at 800-fold the tested concentration and stored at -70 degrees C prior to their use. All drugs and investigational agents were tested over a range starting from a high concentration at or near the clinical Cmax and decreasing in half-log increments. If the clinical Cmax for an agent had not been determined, the highest concentration tested was 10 microM.
# NCI60 Cell Culture. NCI60 cell lines were obtained from the NCI Developmental Therapeutics Program Tumor Repository. For each lot of cells, the Repository performed Applied Biosystems AmpFLSTR Identifiler testing with PCR amplification to confirm consistency with the published Identifier STR profile for each cell line. Cells were kept in continuous culture for no more than 20 passages. The optimal seeding densities for each of the cell lines at each time point assessed were determined prior to performing the concentration response studies. Briefly, the NCI60 human tumor lines were grown as monolayers in RPMI 1640 medium supplemented with 10% FBS and 2 mmol/L L-glutamine.
# An additional 9 lines were from the NCI60 cell line panel including MDA-MB-231 breast carcinoma, MDA-MB-468 breast carcinoma, MCF7 breast carcinoma, Hs578T breast carcinoma, MALME-3M melanoma, SK-MEL-2 melanoma, SK-OV-3 ovarian carcinoma, DU-145 prostate carcinoma, PC-3 prostate carcinoma, all cell lines along with major genetic alterations are listed on Table 2. Pooled donor human umbilical vein endothelial cells (HUVEC, Lonza, cat. CC-2519) and human mesenchymal stem cells (hMSC, Lonza, cat. PT-2501) were purchased from Lonza (Walkersville, MD).
# PDMR cell lines were grown in complete medium (DC medium): Dulbecco's modified Eagle's medium (DMEM)/F12 supplemented with 5% fetal bovine serum (FBS), 2 mM L-glutamine, 100 U/mL penicillin and 100 µg/ml streptomycin, 0.4 µg/ml hydrocortisone, 10 ng/ml epidermal growth factor (EGF) recombinant human protein, 24 µg/mL adenine, and 0.1 mg/mL primocin. During culture from frozen stock vials, PDMR cells were cultured in the same medium containing 10 µM Y-27632 (see Table 3). The PDCs were cultured in complete DMEM/F12 media without 10 microM Y-27632 dihydrochloride for at least two passages prior to the screen. The pooled donor HUVEC and hMSC were cultured in endothelial cell growth medium 2 (PromoCell, Heidelberg, Germany, cat. C-22011) and mesenchymal stem cell growth medium 2 (PromoCell, cat. C-28009), respectively. For all experiments, HUVEC and hMSC were used at passages </=5.
# […]
# [1] = curve of first compound, second compound 0.01 µM
# [2] = curve of first compound, second compound 0.0316 µM
# [3] = curve of first compound, second compound 0.1 µM
# [4] = curve of first compound, second compound 0.316 µM
# [5] = curve of first compound, second compound 1 µM
compound,measurement,setting,value
Cn1ncc(Cl)c1-c1cc(C(=O)NC(CN)Cc2cccc(F)c2)sc1Cl (configuration not stated),"viability, T/C",compound 0.0316 µM,82.3% and 88.3%
same,"viability, T/C",compound 0.1 µM,61.5% and 72.7%
same,"viability, T/C",compound 0.316 µM,55.5% and 61.2%
same,"viability, T/C",compound 1 µM,32.6% and 32.4%
same,"viability, T/C",compound 3.16 µM,15.9% and 11.8%
same,"viability, T/C",compound 10 µM,0.22% and 0.21%
same,IC50,curve of compound,330 nM and 460 nM
CC(C)(C)c1cnc(CSc2cnc(NC(=O)C3CCNCC3)s2)o1 + CCN1CCN(Cc2ccc(Nc3ncc(F)c(-c4cc(F)c5nc(C)n(C(C)C)c5c4)n3)nc2)CC1,IC50,[1],105 nM
same,IC50,[2],79.4 nM
same,IC50,[3],115 nM
same,IC50,[4],62.3 nM
same,IC50,[5],42.6 nM
same,"viability, T/C","second compound 0.01 µM, first compound 0.00949 µM",110%
same,"viability, T/C","second compound 0.01 µM, first compound 0.03 µM",102%
same,"viability, T/C","second compound 0.01 µM, first compound 0.0949 µM",55.2%
same,"viability, T/C","second compound 0.01 µM, first compound 0.3 µM",0.29%
same,"viability, T/C","second compound 0.01 µM, first compound 0.949 µM",0.19%
same,"viability, T/C","second compound 0.01 µM, first compound 3 µM",0.31%
same,"viability, T/C","second compound 0.0316 µM, first compound 0.00949 µM",94.8%
same,"viability, T/C","second compound 0.0316 µM, first compound 0.03 µM",92%
same,"viability, T/C","second compound 0.0316 µM, first compound 0.0949 µM",42.3%
same,"viability, T/C","second compound 0.0316 µM, first compound 0.3 µM",0.24%
same,"viability, T/C","second compound 0.0316 µM, first compound 0.949 µM",0.19%
same,"viability, T/C","second compound 0.0316 µM, first compound 3 µM",0.32%
same,"viability, T/C","second compound 0.1 µM, first compound 0.00949 µM",93.6%
same,"viability, T/C","second compound 0.1 µM, first compound 0.03 µM",91.7%
same,"viability, T/C","second compound 0.1 µM, first compound 0.0949 µM",59.9%
same,"viability, T/C","second compound 0.1 µM, first compound 0.3 µM",0.22%
same,"viability, T/C","second compound 0.1 µM, first compound 0.949 µM",0.22%
same,"viability, T/C","second compound 0.1 µM, first compound 3 µM",0.29%
same,"viability, T/C","second compound 0.316 µM, first compound 0.00949 µM",90.8%
same,"viability, T/C","second compound 0.316 µM, first compound 0.03 µM",89.8%
same,"viability, T/C","second compound 0.316 µM, first compound 0.0949 µM",27.1%
same,"viability, T/C","second compound 0.316 µM, first compound 0.3 µM",0.32%
same,"viability, T/C","second compound 0.316 µM, first compound 0.949 µM",0.26%
same,"viability, T/C","second compound 0.316 µM, first compound 3 µM",0.31%
same,"viability, T/C","second compound 1 µM, first compound 0.00949 µM",85.6%
same,"viability, T/C","second compound 1 µM, first compound 0.03 µM",70.8%
same,"viability, T/C","second compound 1 µM, first compound 0.0949 µM",2.25%
same,"viability, T/C","second compound 1 µM, first compound 0.3 µM",0.45%
same,"viability, T/C","second compound 1 µM, first compound 0.949 µM",0.35%
same,"viability, T/C","second compound 1 µM, first compound 3 µM",0.37%
CC(C)n1nc(-c2ccc3oc(N)nc3c2)c2c(N)ncnc21 + CCN1CCN(Cc2ccc(Nc3ncc(F)c(-c4cc(F)c5nc(C)n(C(C)C)c5c4)n3)nc2)CC1,IC50,[1],11.5 nM
same,IC50,[2],10.4 nM
same,IC50,[3],11.2 nM
same,IC50,[4],14.7 nM
same,IC50,[5],11.6 nM
same,"viability, T/C","second compound 0.01 µM, first compound 0.000316 µM",90.8%
same,"viability, T/C","second compound 0.01 µM, first compound 0.001 µM",90%
same,"viability, T/C","second compound 0.01 µM, first compound 0.00316 µM",69.7%
same,"viability, T/C","second compound 0.01 µM, first compound 0.01 µM",57.6%
same,"viability, T/C","second compound 0.01 µM, first compound 0.0316 µM",24.9%
same,"viability, T/C","second compound 0.01 µM, first compound 0.1 µM",10.6%
same,"viability, T/C","second compound 0.0316 µM, first compound 0.000316 µM",95.6%
same,"viability, T/C","second compound 0.0316 µM, first compound 0.001 µM",81.4%
same,"viability, T/C","second compound 0.0316 µM, first compound 0.00316 µM",67%
same,"viability, T/C","second compound 0.0316 µM, first compound 0.01 µM",56%
same,"viability, T/C","second compound 0.0316 µM, first compound 0.0316 µM",26.4%
same,"viability, T/C","second compound 0.0316 µM, first compound 0.1 µM",11.6%
same,"viability, T/C","second compound 0.1 µM, first compound 0.000316 µM",99%
same,"viability, T/C","second compound 0.1 µM, first compound 0.001 µM",78.3%
same,"viability, T/C","second compound 0.1 µM, first compound 0.00316 µM",75.8%
same,"viability, T/C","second compound 0.1 µM, first compound 0.01 µM",54%
same,"viability, T/C","second compound 0.1 µM, first compound 0.0316 µM",26.9%
same,"viability, T/C","second compound 0.1 µM, first compound 0.1 µM",10.2%
same,"viability, T/C","second compound 0.316 µM, first compound 0.000316 µM",91.4%
same,"viability, T/C","second compound 0.316 µM, first compound 0.001 µM",88.3%
same,"viability, T/C","second compound 0.316 µM, first compound 0.00316 µM",86%
same,"viability, T/C","second compound 0.316 µM, first compound 0.01 µM",54.7%
same,"viability, T/C","second compound 0.316 µM, first compound 0.0316 µM",35%
same,"viability, T/C","second compound 0.316 µM, first compound 0.1 µM",14.5%
same,"viability, T/C","second compound 1 µM, first compound 0.000316 µM",75.2%
same,"viability, T/C","second compound 1 µM, first compound 0.001 µM",81.3%
same,"viability, T/C","second compound 1 µM, first compound 0.00316 µM",64.2%
same,"viability, T/C","second compound 1 µM, first compound 0.01 µM",53.2%
same,"viability, T/C","second compound 1 µM, first compound 0.0316 µM",34%
same,"viability, T/C","second compound 1 µM, first compound 0.1 µM",20%
